Columns and labels:
Assay in all cases: relative viability (nuclei count vs DMSO), 5 days (fraction); higher = more cells survive
HCC-15 = system: HCC-15
Summary of the method: (§1)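 For relative viability, nuclei counts in treated wells were divided by those in vehicle wells. Lung cancer cell lines had been pin-tool dosed in 1536-well plates the day after seeding and cultured for 5 days, then fixed and stained in one step (final 0.05% Triton X-100, 1% formaldehyde, 1 ug/ml Hoechst) and imaged at 4×. Doses were one drug alone or a fixed anchor-drug dose plus five library-drug doses (not always all listed) in √10 steps, and values are duplicate-plate medians.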

NCI-H1993 = system: NCI-H1993
Summary of the method: as §1

NCI-H358 = system: NCI-H358
Summary of the method: as §1

COR-L23 = system: COR-L23
Summary of the method: as §1

HARA = system: HARA
Summary of the method: as §1

NCI-H1793 = system: NCI-H1793
Summary of the method: as §1

ABC-1 = system: ABC-1
Summary of the method: as §1

NCI-H2228 = system: NCI-H2228
Summary of the method: as §1

HCC-78 = system: HCC-78
Summary of the method: as §1

NCI-H2405 = system: NCI-H2405
Summary of the method: as §1

SK-LU-1 = system: SK-LU-1
Summary of the method: as §1

NCI-H2126 = system: NCI-H2126
Summary of the method: as §1

NCI-H1395 = system: NCI-H1395
Summary of the method: as §1

LC-2-ad = system: LC-2-ad
Summary of the method: as §1

NCI-H1944 = system: NCI-H1944
Summary of the method: as §1

HCC-366 = system: HCC-366
Summary of the method: as §1

HOP-62 = system: HOP-62
Summary of the method: as §1

EMC-BAC-2 = system: EMC-BAC-2
Summary of the method: as §1

NCI-H23 = system: NCI-H23
Summary of the method: as §1

NCI-H838 = system: NCI-H838
Summary of the method: as §1

NCI-H2023 = system: NCI-H2023
Summary of the method: as §1

With `COc1cc2nccc(Oc3ccc(NC(=O)Nc4cc(C)on4)c(Cl)c3)c2cc1OC` [Tivozanib] + Cc1nc(NC(=O)N2CCC[C@H]2C(N)=O)sc1-c1ccnc(C(C)(C)C(F)(F)F)c1 [Alpelisib] (partner 2 µM) the relative viability (HCC-15; first compound 0.005 µM) was 0.917, the relative viability (HCC-15; first compound 0.01581 µM) was 0.839 and the relative viability (HCC-15; first compound 0.05 µM) was 0.943. The relative viability (HCC-15; first compound 0.1581 µM) was 0.826, the relative viability (HCC-15; first compound 0.5 µM) was 0.81 and the relative viability (NCI-H1993; first compound 0.005 µM) was 0.657. It also gave a relative viability (NCI-H1993; first compound 0.01581 µM) of 0.741, a relative viability (NCI-H1993; first compound 0.05 µM) of 0.688 and a relative viability (NCI-H1993; first compound 0.1581 µM) of 0.688. For the same compound, the relative viability (NCI-H1993; first compound 0.5 µM) was 0.695, the relative viability (NCI-H358; first compound 0.005 µM) was 0.736 and the relative viability (NCI-H358; first compound 0.01581 µM) was 0.803. It also gave a relative viability (NCI-H358; first compound 0.05 µM) of 0.771, a relative viability (NCI-H358; first compound 0.1581 µM) of 0.73 and a relative viability (NCI-H358; first compound 0.5 µM) of 0.94. The relative viability (COR-L23; first compound 0.005 µM) was 0.687, the relative viability (COR-L23; first compound 0.01581 µM) was 0.778 and the relative viability (COR-L23; first compound 0.05 µM) was 0.931. The relative viability (COR-L23; first compound 0.1581 µM) was 0.709, the relative viability (COR-L23; first compound 0.5 µM) was 0.582 and the relative viability (HARA; first compound 0.005 µM) was 0.911. It also gave a relative viability (HARA; first compound 0.01581 µM) of 0.838, a relative viability (HARA; first compound 0.05 µM) of 0.908 and a relative viability (HARA; first compound 0.1581 µM) of 0.877. It also gave a relative viability (HARA; first compound 0.5 µM) of 0.798, a relative viability (NCI-H1793; first compound 0.005 µM) of 0.643 and a relative viability (NCI-H1793; first compound 0.01581 µM) of 0.617. It also gave a relative viability (NCI-H1793; first compound 0.05 µM) of 0.729, a relative viability (NCI-H1793; first compound 0.5 µM) of 0.705 and a relative viability (ABC-1; first compound 0.005 µM) of 0.971. For the same compound, the relative viability (ABC-1; first compound 0.01581 µM) was 0.99, the relative viability (ABC-1; first compound 0.05 µM) was 0.917 and the relative viability (ABC-1; first compound 0.1581 µM) was 1.27. For the same compound, the relative viability (ABC-1; first compound 0.5 µM) was 1.08, the relative viability (NCI-H2228; first compound 0.005 µM) was 0.653 and the relative viability (NCI-H2228; first compound 0.01581 µM) was 0.81. For the same compound, the relative viability (NCI-H2228; first compound 0.05 µM) was 0.944, the relative viability (NCI-H2228; first compound 0.1581 µM) was 0.743 and the relative viability (NCI-H2228; first compound 0.5 µM) was 0.72. The relative viability (HCC-78; first compound 0.005 µM) was 0.327, the relative viability (HCC-78; first compound 0.01581 µM) was 0.347 and the relative viability (HCC-78; first compound 0.05 µM) was 0.315. The relative viability (HCC-78; first compound 0.1581 µM) was 0.248, the relative viability (HCC-78; first compound 0.5 µM) was 0.316 and the relative viability (NCI-H2405; first compound 0.005 µM) was 0.776. It also gave a relative viability (NCI-H2405; first compound 0.01581 µM) of 0.878, a relative viability (NCI-H2405; first compound 0.05 µM) of 0.823 and a relative viability (NCI-H2405; first compound 0.1581 µM) of 0.737. For the same compound, the relative viability (NCI-H2405; first compound 0.5 µM) was 0.641, the relative viability (SK-LU-1; first compound 0.005 µM) was 1.01 and the relative viability (SK-LU-1; first compound 0.01581 µM) was 1.01. For the same compound, the relative viability (SK-LU-1; first compound 0.05 µM) was 1.12, the relative viability (SK-LU-1; first compound 0.1581 µM) was 0.645 and the relative viability (SK-LU-1; first compound 0.5 µM) was 0.907. It also gave a relative viability (NCI-H2126; first compound 0.005 µM) of 0.708, a relative viability (NCI-H2126; first compound 0.01581 µM) of 0.757 and a relative viability (NCI-H2126; first compound 0.05 µM) of 0.763. For the same compound, the relative viability (NCI-H2126; first compound 0.1581 µM) was 0.53, the relative viability (NCI-H2126; first compound 0.5 µM) was 0.734 and the relative viability (NCI-H1395; first compound 0.005 µM) was 0.951. For the same compound, the relative viability (NCI-H1395; first compound 0.01581 µM) was 1.08, the relative viability (NCI-H1395; first compound 0.05 µM) was 1.01 and the relative viability (NCI-H1395; first compound 0.1581 µM) was 1.05. The relative viability (NCI-H1395; first compound 0.5 µM) was 0.91, the relative viability (LC-2-ad; first compound 0.005 µM) was 0.902 and the relative viability (LC-2-ad; first compound 0.01581 µM) was 0.809. The relative viability (LC-2-ad; first compound 0.05 µM) was 0.8, the relative viability (LC-2-ad; first compound 0.1581 µM) was 0.629 and the relative viability (LC-2-ad; first compound 0.5 µM) was 0.654. It also gave a relative viability (NCI-H1944; first compound 0.005 µM) of 0.889, a relative viability (NCI-H1944; first compound 0.01581 µM) of 0.902 and a relative viability (NCI-H1944; first compound 0.05 µM) of 0.885. For the same compound, the relative viability (NCI-H1944; first compound 0.1581 µM) was 0.733, the relative viability (NCI-H1944; first compound 0.5 µM) was 0.912 and the relative viability (HCC-366; first compound 0.005 µM) was 0.297. For the same compound, the relative viability (HCC-366; first compound 0.01581 µM) was 0.448, the relative viability (HCC-366; first compound 0.05 µM) was 0.381 and the relative viability (HCC-366; first compound 0.1581 µM) was 0.51. For the same compound, the relative viability (HCC-366; first compound 0.5 µM) was 0.388, the relative viability (HOP-62; first compound 0.005 µM) was 0.72 and the relative viability (HOP-62; first compound 0.01581 µM) was 0.729. It also gave a relative viability (HOP-62; first compound 0.05 µM) of 1.06, a relative viability (HOP-62; first compound 0.1581 µM) of 0.483 and a relative viability (HOP-62; first compound 0.5 µM) of 0.901. The relative viability (EMC-BAC-2; first compound 0.005 µM) was 0.722, the relative viability (EMC-BAC-2; first compound 0.01581 µM) was 0.736 and the relative viability (EMC-BAC-2; first compound 0.05 µM) was 0.753. It also gave a relative viability (EMC-BAC-2; first compound 0.1581 µM) of 0.696, a relative viability (EMC-BAC-2; first compound 0.5 µM) of 0.774 and a relative viability (NCI-H23; first compound 0.005 µM) of 0.735. The relative viability (NCI-H23; first compound 0.01581 µM) was 0.651, the relative viability (NCI-H23; first compound 0.05 µM) was 0.615 and the relative viability (NCI-H23; first compound 0.1581 µM) was 0.497. It also gave a relative viability (NCI-H23; first compound 0.5 µM) of 0.561, a relative viability (NCI-H838; first compound 0.005 µM) of 0.984 and a relative viability (NCI-H838; first compound 0.01581 µM) of 1.04. The relative viability (NCI-H838; first compound 0.05 µM) was 1.04, the relative viability (NCI-H838; first compound 0.5 µM) was 1.03 and the relative viability (NCI-H2023; first compound 0.005 µM) was 0.553. For the same compound, the relative viability (NCI-H2023; first compound 0.01581 µM) was 0.578, the relative viability (NCI-H2023; first compound 0.05 µM) was 0.634 and the relative viability (NCI-H2023; first compound 0.1581 µM) was 0.589. It also gave a relative viability (NCI-H2023; first compound 0.5 µM) of 0.61.

Source: the supplement of paper PMC10307832
